Results from PubChem BioAssay AID2060912 (Molecular Pharmacology Branch, DTP, NCI, 2025).

Test system: HUVEC/MSC spheroids viability
Experiment: Human HUVEC/MSC cell line growth inhibition [KRAS2];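 for viability, T/C: percent of DMSO vehicle control luminescence so 100% = untreated viability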
Conditions: for IC50: curve of first compound; for viability, T/C: stronger effect = lower value
Source text: Multicellular complex tumor spheroid response to RAS pathway inhibitors in combination with a targeted agents in patient-derived cell lines with oncogenic KRAS variants from multiple cancer types
A high-throughput screen of multi-cell type tumor spheroids was designed to identify active combinations of targeted small molecules and KRAS pathway inhibitors. Complex spheroids include a stromal component modeled by human endothelial cells (HUVEC) and fibroblasts modeled by human mesenchymal stem cells (MSCs). The concentration ranges selected for each drug and investigational agent were based upon clinically achievable concentrations if the clinical Cmax of the agent was known. * [This particular assayID is a followup dataset requested by reviewers of the manuscript. It is a test of the HUVEC and MSC without the tumor cells, and was conducted using different drug plates and a different plate layout.]
Compounds. The drugs and investigational agents: BI-3406 (NSC825286), BAY-293 (NSC824723), batoprotafib (TNO155; NSC825523), sotorasib (AMG 510; NSC818433), MRTX1257 (NSC819558), elimusertib (BAY 1895344; NSC800525), molibresib (GSK525762; NSC774829), temuterkib (LY3214996; NSC803410), venetoclax (NSC766270), alisertib (NSC759677), olaparib (NSC753686), talazoparib (NSC767125), erdafitinib (NSC781556), ipatasertib (NSC767898), cabozantinib (NSC761068), nintedanib (NSC756659), abemaciclib (NSC768073), docetaxel (NSC628503), trametinib (NSC758246), and sapanisertib (NSC764658) were obtained from the National Cancer Institute (NCI) Developmental Therapeutics Program Chemical Repository. The FDA-approved anticancer drug set is available from the Developmental Therapeutics Program. […] The stock solutions were prepared in dimethyl sulfoxide (DMSO, Sigma-Aldrich, St. Louis, MO, cat. D2650) at 800-fold the tested concentration and stored at -70 degrees C prior to their use. All drugs and investigational agents were tested over a range starting from a high concentration at or near the clinical Cmax and decreasing in half-log increments. If the clinical Cmax for an agent had not been determined, the highest concentration tested was 10 microM.
Cell Culture. All cells were maintained in an incubator at 37 degrees C and 5% CO2 with 95% humidity. The PDC lines were cultured according to standard operating procedures established by the NCI PDMR (https://pdmr.cancer.gov/sops/default.htm). Briefly, all PDCs were thawed and cultured in Matrigel-coated flasks prepared with a working solution of 1X Ham's F-12 nutrient mix, without supplementation (Invitrogen, Waltham, MA, cat. 11765054), 100 U/mL penicillin-streptomycin (Invitrogen, cat. 15140122), and 2.5% Matrigel (Corning Inc., Corning, NY, cat. 354248) for the first three passages. All PDCs were cultured in complete DMEM/F-12 media containing advanced DMEM/F-12 (Invitrogen, cat. 12634028), 4.9% defined fetal bovine serum, heat inactivated (HyClone Laboratories Inc., Logan, UT, cat. SH30070.03HI), 389 ng/mL hydrocortisone (Sigma-Aldrich, cat. H4001), 9.7 ng/mL human EGF recombinant protein (Invitrogen, cat. PHG0313), 23.4 microg/mL adenine (Sigma-Aldrich, cat. A2786), 97.3 U/mL penicillin-streptomycin (Invitrogen, cat. 15140122), 1.9 mM L-glutamine (Invitrogen, cat. 25030081), and 9.7 microM Y-27632 dihydrochloride (Tocris Bioscience, Bristol, United Kingdom, cat. 1254). The PDCs were cultured in complete DMEM/F12 media without 9.7 microM Y-27632 dihydrochloride for at least two passages prior to the screen. The established cell line HOP-62 was cultured in RPMI 1640 medium, HEPES (Invitrogen, cat. 22400105) with 10% defined fetal bovine serum (HyClone Laboratories Inc., cat. SH30070.03) and 2 mM L-glutamine (Invitrogen, cat. 25030081). The pooled donor HUVEC were cultured in endothelial cell growth medium 2 (PromoCell, Heidelberg, Germany, cat. C-22011) and the hMSC were cultured in mesenchymal stem cell growth medium 2 (PromoCell, cat. C-28009). […]

Which IC50 (second compound 0.0316 µM) does the source give for `CC(=O)Nc1cccc(-n2c(=O)n(C3CC3)c(=O)c3c(Nc4ccc(I)cc4F)n(C)c(=O)c(C)c32)c1` + C=CC(=O)N1CCN(c2nc(=O)n(-c3c(C)ccnc3C(C)C)c3nc(-c4c(O)cccc4F)c(F)cc23)C(C)C1 here?
Its IC50 is 16.1 nM.

And the IC50 (second compound 0.1 µM)?
Its IC50 is 17.8 nM.

And the IC50 (second compound 0.316 µM)?
Its IC50 is 16.8 nM.

And the IC50 (second compound 1 µM)?
The IC50 was 17.9 nM.

What about the IC50 (second compound 3.16 µM) of the same compound?
Its IC50 is 16.3 nM.

What about the IC50 (second compound 10 µM) of the same compound?
The IC50 was 13.7 nM.

And the viability, T/C (second compound 0.0316 µM, first compound 94.9 pM)?
Its viability, T/C is 126%.

And the viability, T/C (second compound 0.0316 µM, first compound 0.0003 µM)?
Its viability, T/C is 140%.

What about the viability, T/C (second compound 0.0316 µM, first compound 0.000949 µM) of the same compound?
The viability, T/C was 163%.

What about the viability, T/C (second compound 0.0316 µM, first compound 0.003 µM) of the same compound?
Its viability, T/C is 114%.

What about the viability, T/C (second compound 0.0316 µM, first compound 0.00949 µM) of the same compound?
The viability, T/C was 77.1%.

And the viability, T/C (second compound 0.0316 µM, first compound 0.03 µM)?
Its viability, T/C is 20.7%.

What about the viability, T/C (second compound 0.1 µM, first compound 94.9 pM) of the same compound?
Its viability, T/C is 92.7%.

And the viability, T/C (second compound 0.1 µM, first compound 0.0003 µM)?
The viability, T/C was 130%.

And the viability, T/C (second compound 0.1 µM, first compound 0.000949 µM)?
Its viability, T/C is 141%.

And the viability, T/C (second compound 0.1 µM, first compound 0.003 µM)?
The viability, T/C was 113%.

And the viability, T/C (second compound 0.1 µM, first compound 0.00949 µM)?
Its viability, T/C is 88.3%.

What about the viability, T/C (second compound 0.1 µM, first compound 0.03 µM) of the same compound?
The viability, T/C was 18.6%.

What about the viability, T/C (second compound 0.316 µM, first compound 94.9 pM) of the same compound?
The viability, T/C was 126%.

And the viability, T/C (second compound 0.316 µM, first compound 0.0003 µM)?
Its viability, T/C is 157%.

And the viability, T/C (second compound 0.316 µM, first compound 0.000949 µM)?
The viability, T/C was 151%.

And the viability, T/C (second compound 0.316 µM, first compound 0.003 µM)?
Its viability, T/C is 119%.

And the viability, T/C (second compound 0.316 µM, first compound 0.00949 µM)?
Its viability, T/C is 80.3%.

And the viability, T/C (second compound 0.316 µM, first compound 0.03 µM)?
Its viability, T/C is 20.6%.

And the viability, T/C (second compound 1 µM, first compound 94.9 pM)?
The viability, T/C was 148%.

What about the viability, T/C (second compound 1 µM, first compound 0.0003 µM) of the same compound?
Its viability, T/C is 133%.

And the viability, T/C (second compound 1 µM, first compound 0.000949 µM)?
Its viability, T/C is 148%.

What about the viability, T/C (second compound 1 µM, first compound 0.003 µM) of the same compound?
The viability, T/C was 112%.

And the viability, T/C (second compound 1 µM, first compound 0.00949 µM)?
Its viability, T/C is 89.8%.

What about the viability, T/C (second compound 1 µM, first compound 0.03 µM) of the same compound?
Its viability, T/C is 19.7%.

And the viability, T/C (second compound 3.16 µM, first compound 94.9 pM)?
The viability, T/C was 144%.

And the viability, T/C (second compound 3.16 µM, first compound 0.0003 µM)?
The viability, T/C was 157%.

What about the viability, T/C (second compound 3.16 µM, first compound 0.000949 µM) of the same compound?
Its viability, T/C is 170%.

What about the viability, T/C (second compound 3.16 µM, first compound 0.003 µM) of the same compound?
The viability, T/C was 120%.

And the viability, T/C (second compound 3.16 µM, first compound 0.00949 µM)?
The viability, T/C was 82%.

What about the viability, T/C (second compound 3.16 µM, first compound 0.03 µM) of the same compound?
Its viability, T/C is 16.8%.

And the viability, T/C (second compound 10 µM, first compound 94.9 pM)?
Its viability, T/C is 134%.

And the viability, T/C (second compound 10 µM, first compound 0.0003 µM)?
The viability, T/C was 157%.

And the viability, T/C (second compound 10 µM, first compound 0.000949 µM)?
The viability, T/C was 164%.

What about the viability, T/C (second compound 10 µM, first compound 0.003 µM) of the same compound?
The viability, T/C was 130%.

And the viability, T/C (second compound 10 µM, first compound 0.00949 µM)?
Its viability, T/C is 70.4%.

And the viability, T/C (second compound 10 µM, first compound 0.03 µM)?
The viability, T/C was 8.78%.
